The values that follow come from US9289365B2, “Compositions and methods for stimulating collagen synthesis in the skin” (Avon Products, Inc., priority 2011, dated 2016).

Each structure is given as a SMILES string.

In the assay the test system is Human dermal fibroblasts. Put plainly: Stimulation of collagen synthesis in human dermal fibroblasts, procollagen type I C-peptide (PIP) EIA. The class given is cell-based. The following applies: compound at 0.0005% in DMSO, triplicate, 48-hour incubation; procollagen type I C-peptide in conditioned medium; increase in collagen over DMSO control. The protocol:
The compounds 1-5, and 8-9 were assayed for stimulation of collagen synthesis as follows. Human dermal fibroblasts (Cascade Biologics, Portland, Oreg.) were plated at 10,000 cells/well in 96-well culture plates in supplemented medium (DMEM, 10% Fetal Bovine Serum, 1% Penicillin/Streptomycin and 1% L-Glutamine) overnight in humidified atmosphere of 10% CO2 at 37° C. The next day, the medium was replaced with fresh medium (DMEM, 1% Penicillin/Streptomycin and 1% L-Glutamine) and the compounds dissolved DMSO were added to the wells in triplicate at a concentration of 0.0005%, DMSO solution was used a control. Following 48-hour incubation, the plates were removed from the incubator and the medium from each well was collected for the procollagen assay.
Collagen production was measured using procollagen type I C-peptide (PIP) EIA kit (Takara Bio, Inc., Japan). Briefly, the conditioned medium was diluted 1:10 in Sample Diluent, 20 μl of diluted conditioned medium and 100 μl of antibody-POD conjugate solution were added to the wells of the Takara HASA plate. The ELISA plate was incubated at 37° C. for 3 hours before the wells were washed four times with 400 μl of 1×PBS. At the end of wash, 100 μl of substrate solution (supplied with kit) was added to the wells and incubated at room temperature for 15 minutes. The reaction was stopped by adding 100 μl of 1N sulfuric acid to the wells. The absorbance was measured on a spectrophotometer at 450 nm wavelength. The amount of procollagen peptide in the conditioned medium was calculated from the standard curve. The stimulation of collagen production was shown as an increase in collagen over the control.
As for `CCCc1c(C(=O)N2CCOCC2)cnn1-c1ccccc1Cl` [Compound 3], the “% Collagen Stimulation” value turned out to be 13.5%.

Regarding `Cc1c(C(=O)N2CCCC2)c(CC(C)C)nn1-c1ccccc1` [Compound 2], the “% Collagen Stimulation” value is recorded as 23.1%.

With `Cc1ccccc1N1CCN(C(=O)c2cc(-c3cccn3C)nn2-c2ccccc2Cl)CC1` [Compound 9], the “% Collagen Stimulation” value stood at 62.2%.

Regarding `Cc1ccccc1N1CCN(C(=O)c2cc(-c3ccccc3)nn2-c2ccc(Cl)c(Cl)c2)CC1` [Compound 8], the “% Collagen Stimulation” value was determined as 83.7%.

Regarding `CCCc1c(C(=O)N2CCCC2)cnn1-c1ccccc1C` [Compound 5], the “% Collagen Stimulation” value is 45.23%.

Take `CCc1c(C(=O)N2CCCC2)cnn1-c1ccccc1Cl` [Compound 1]: the “% Collagen Stimulation” value is recorded as 73.2%.

As for `Cc1c(C(=O)N2CCCC2)cnn1-c1ccccc1` [Compound 4], the “% Collagen Stimulation” value stood at 12.5%.
